Test results reported in patent publication US10125100B2, “Kinase inhibitors” (Respivert Limited, priority 2014, dated 2018).
pIC50: −log10 of the molar value.

Assays:
p38 MAPKα (MAPK14) = p38 MAPKα (MAPK14) (Homo sapiens (Human), UniProt Q16539); assay: p38 MAPKα enzyme inhibition (Method 2), Z-LYTE FRET; type: biochemical
Description: (§1) The enzyme inhibitory activities of compounds disclosed herein are determined by FRET using synthetic peptides labelled with both donor and acceptor fluorophores (Z-LYTE, Invitrogen Ltd., Paisley, UK).
The following two assay variants can be used for determination of p38 MAPKα inhibition.
The inhibitory activities of test compounds against the p38 MAPKα isoform (MAPK14: Invitrogen) are evaluated indirectly by determining the level of activation/phosphorylation of the down-stream molecule, MAPKAP-K2. The p38 MAPKα protein (80 ng/mL, 2.5 μL) is mixed with the test compound (2.5 μL of either 4 μg/mL, 0.4 μg/mL, 0.04 μg/mL or 0.004 μg/mL) for 2 hr at RT. […] The mixture is incubated for 1 hr at RT. Development reagent (protease, 5 μL) is added for 1 hr prior to detection in a fluorescence microplate reader (Varioskan® Flash, ThermoFisher Scientific).
This method follows the same steps as Method 1 above, but utilises a higher concentration of the p38 MAPKα protein (2.5 μL of 200 ng/mL protein instead of 2.5 μL of 80 ng/mL protein) for mixing with the test compound (tested at either 1 μg/mL, 0.1 μg/mL, 0.01 μg/mL or 0.001 μg/mL).
(§2) In all cases, the site-specific protease cleaves non-phosphorylated peptide only and eliminates the FRET signal. Phosphorylation levels of each reaction are calculated using the ratio of coumarin emission (donor) over fluorescein emission (acceptor), for which high ratios indicate high phosphorylation and low ratios indicate low phosphorylation levels.

mitosis in PBMCs = assay: (g) Cell mitosis assay; type: cell-based; conditions: Homo sapiens, PBMC, 5 μg/mL
Description: Peripheral blood mononucleocytes (PBMCs) from healthy subjects are separated from whole blood (Quintiles, London, UK) using a density gradient (Histopaque®-1077, Sigma-Aldrich, Poole, UK). The PBMCs (3 million cells per sample) are subsequently treated with 2% PHA (phytohaemagglutinin, Sigma-Aldrich, Poole, UK) for 48 hr, followed by a 20 hr exposure to varying concentrations of test compounds. At 2 hr before collection, PBMCs are treated with demecolcine (0.1 μg/mL; Invitrogen, Paisley, UK) to arrest cells in metaphase. To observe mitotic cells, PBMCs are permeabilized and fixed by adding Intraprep (50 μL; Beckman Coulter, France), and stained with anti-phospho-histone 3 ([…]; #9701; Cell Signalling, Danvers, Mass.) and propidium iodide (1 mg/mL; Sigma-Aldrich, Poole, UK) as previously described (Muehlbauer P. A. and Schuler M. J., Mutation Research, 2003, 537:117-130). Fluorescence is observed using an ATTUNE flow cytometer (Invitrogen, Paisley, UK), gating for lymphocytes.

c-Src = c-Src (Homo sapiens (Human), UniProt P12931); assay: c-Src enzyme inhibition, Z-LYTE FRET; type: biochemical
Description: as §1
(§3) The inhibitory activities of compounds of the invention against c-Src and Syk enzymes (Invitrogen), are evaluated in a similar fashion to that described hereinabove. The relevant enzyme (3000 ng/mL or 2000 ng/mL respectively, 2.5 μL) is incubated with the test compound (either 1 μg/mL, 0.1 μg/mL, 0.01 μg/mL, or 0.001 μg/mL, 2.5 μL each) for 2 hr at RT. The FRET peptides (8 μM, 2.5 μL), and appropriate ATP solutions (2.5 μL, 800 μM for c-Src, and 60 μM ATP for Syk) are then added to the enzymes/compound mixtures and the mixture incubated for 1 hr. Development reagent (protease, 5 μL) is added for 1 hr prior to detection in a fluorescence microplate reader (Varioskan® Flash, ThermoFisher Scientific).
as §2

Syk = Syk (Homo sapiens (Human), UniProt P43405); assay: Syk enzyme inhibition, Z-LYTE FRET; type: biochemical
Description: as §1
as §3, with “The” for “The inhibitory activities of compounds of the invention against c-Src and Syk enzymes (Invitrogen), are evaluated in a similar fashion to that described hereinabove. The”
as §2

Jurkat cells = assay: (r) Cell cytotoxicity assay; type: cell-based, human; conditions: 24 hours
Outline: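 Viability read by flow cytometry as the fraction of propidium iodide-negative cells (7.5 μg/mL PI, 15 min), relative to 1.0% DMSO control. Beforehand, 1×10^5 Jurkat cells in RPMI/10% FBS were treated 24 h at 37° C., 5% CO2 with test compound at final 20, 5 or 1 μg/mL.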

Sequence of p38 MAPKα (MAPK14) (Q16539 whole entry): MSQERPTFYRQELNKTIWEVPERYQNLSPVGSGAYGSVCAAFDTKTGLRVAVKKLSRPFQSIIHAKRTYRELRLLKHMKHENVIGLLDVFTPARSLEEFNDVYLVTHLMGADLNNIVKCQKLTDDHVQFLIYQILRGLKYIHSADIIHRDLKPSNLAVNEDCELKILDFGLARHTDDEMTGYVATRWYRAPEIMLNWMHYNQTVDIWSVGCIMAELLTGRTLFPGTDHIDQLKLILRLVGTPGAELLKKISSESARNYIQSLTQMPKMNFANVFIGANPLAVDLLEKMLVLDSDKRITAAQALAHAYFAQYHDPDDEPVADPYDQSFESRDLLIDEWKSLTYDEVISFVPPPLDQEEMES
Sequence of c-Src (P12931 whole entry, looked up): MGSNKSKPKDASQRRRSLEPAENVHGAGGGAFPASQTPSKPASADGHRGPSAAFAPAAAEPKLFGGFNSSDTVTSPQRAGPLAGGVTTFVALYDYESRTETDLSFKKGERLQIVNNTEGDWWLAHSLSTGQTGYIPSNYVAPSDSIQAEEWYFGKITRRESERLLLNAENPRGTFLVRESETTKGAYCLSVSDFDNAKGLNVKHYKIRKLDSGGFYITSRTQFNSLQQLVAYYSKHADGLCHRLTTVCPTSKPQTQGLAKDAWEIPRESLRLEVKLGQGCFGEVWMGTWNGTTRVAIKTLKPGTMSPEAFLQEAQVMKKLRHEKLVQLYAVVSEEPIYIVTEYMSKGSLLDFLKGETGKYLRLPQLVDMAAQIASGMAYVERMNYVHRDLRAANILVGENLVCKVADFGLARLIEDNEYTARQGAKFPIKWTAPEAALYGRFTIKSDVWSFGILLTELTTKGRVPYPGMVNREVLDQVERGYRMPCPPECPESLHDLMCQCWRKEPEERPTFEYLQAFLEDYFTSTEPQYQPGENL

Row | SMILES | pIC50 (p38 MAPKα (MAPK14)) | inhibition at 5 µg/mL (mitosis in PBMCs) [%] | pIC50 (c-Src) | pIC50 (Syk) | % Viability at 1 μg/mL (Jurkat cells) [%] | % Viability at 5 μg/mL (Jurkat cells) [%] | % Viability at 20 μg/mL (Jurkat cells) [%]
1 | COc1cc(Nc2cc(Oc3ccc(NC(=O)Nc4cc(C(C)(C)C)cc(NS(C)(=O)=O)c4OC)c4ccccc34)ccn2)ccc1C(=O)NCCN1CCOCC1 [Example 2, 4-((4-((4-(3-(5-(tert-Butyl)-2-methoxy-3-(methylsulfonamido)phenyl)ureido)naphthalen-1-yl)oxy)pyridin-2-yl)amino)-2-methoxy-N-(2-morpholinoethyl)benzamide] | 7.70 | 48 | 7.70 | 6.76 | – | – | –
2 | COCCOCCOCCNC(=O)c1ccc(Nc2cc(Oc3ccc(NC(=O)Nc4cc(C(C)(C)C)cc(NS(C)(=O)=O)c4OC)c4ccccc34)ccn2)cc1OC [Example 5, 4-((4-((4-(3-(5-(tert-Butyl)-2-methoxy-3-(methylsulfonamido)phenyl)ureido)naphthalen-1-yl)oxy)pyridin-2-yl)amino)-2-methoxy-N-(2-(2-(2-methoxyethoxy)ethoxy)ethyl)benzamide] | 6.92 | 27.7 | 7.51 | 6.73 | – | – | –
3 | COc1cc(Nc2cc(Oc3ccc(NC(=O)Nc4cc(C(C)(C)C)cc(NS(C)(=O)=O)c4OC)c4ccccc34)ccn2)ccc1C(=O)NCCN1CCN(CCO)CC1 [17(z), 4-[[4-[[4-[[5-tert-butyl-3-(methanesulfonamido)-2-methoxy-phenyl]carbamoylamino]-1-naphthyl]oxy]-2-pyridyl]amino]-N-[2-[4-(2-hydroxyethyl)piperazin-1-yl]ethyl]-2-methoxy-benzamide] | – | 69.7 | – | – | 102.9 | 70.9 | 2.0
4 | COc1cc(Nc2cc(Oc3ccc(NC(=O)Nc4cc(C(C)(C)C)cc(NS(C)(=O)=O)c4OC)c4ccccc34)ccn2)ccc1C(=O)NCCCN1CCN(C)CC1 [17(aa), 4-[[4-[[4-[[5-tert-butyl-3-(methanesulfonamido)-2-methoxy-phenyl]carbamoylamino]-1-naphthyl]oxy]-2-pyridyl]amino]-2-methoxy-N-[3-(4-methylpiperazin-1-yl)propyl]benzamide] | 7.70 | 77.7 | 7.62 | 7.21 | – | – | –
5 | COc1cc(Nc2cc(Oc3ccc(NC(=O)Nc4cc(C(C)(C)C)cc(NS(C)(=O)=O)c4OC)c4ccccc34)ccn2)ccc1C(=O)NCCN(C)CCO [17(ac), 4-[[4-[[4-[[5-tert-butyl-3-(methanesulfonamido)-2-methoxy-phenyl]carbamoylamino]-1-naphthyl]oxy]-2-pyridyl]amino]-N-[2-[2-hydroxyethyl(methyl)amino]ethyl]-2-methoxy-benzamide] | – | 85.8 | – | – | – | – | –
6 | COCCN(C)CCNC(=O)c1ccc(Nc2cc(Oc3ccc(NC(=O)Nc4cc(C(C)(C)C)cc(NS(C)(=O)=O)c4OC)c4ccccc34)ccn2)cc1OC [17(ad), 4-[[4-[[4-[[5-tert-butyl-3-(methanesulfonamido)-2-methoxy-phenyl]carbamoylamino]-1-naphthyl]oxy]-2-pyridyl]amino]-2-methoxy-N-[2-[2-methoxyethyl(methyl)amino]ethyl]-benzamide] | – | 93.4 | – | – | 101.4 | 6.3 | 0.4
7 | COc1cc(Nc2cc(Oc3ccc(NC(=O)Nc4cc(C(C)(C)C)cc(NS(C)(=O)=O)c4OC)c4ccccc34)ccn2)ccc1C(=O)NCCN1CCCOCC1 [17(ai), 4-[[4-[[4-[[5-tert-butyl-3-(methanesulfonamido)-2-methoxy-phenyl]carbamoylamino]-1-naphthyl]oxy]-2-pyridyl]amino]-2-methoxy-N-[2-(1,4-oxazepan-4-yl)ethyl]benzamide] | – | 89.1 | 7.85 | 7.07 | – | – | –
8 | COc1cc(Nc2cc(Oc3ccc(NC(=O)Nc4cc(C(C)(C)C)cc(NS(C)(=O)=O)c4OC)c4ccccc34)ccn2)ccc1C(=O)NCCCCN1CCOCC1 [17(y), 4-[[4-[[4-[[5-tert-butyl-3-(methanesulfonamido)-2-methoxy-phenyl]carbamoylamino]-1-naphthyl]oxy]-2-pyridyl]amino]-2-methoxy-N-(4-morpholinobutyl)benzamide] | – | 70.8 | – | – | – | – | –
9 | COc1c(NC(=O)Nc2ccc(Oc3ccnc(Nc4ccc(C(=O)NCCN5CCOCC5)cc4)c3)c3ccccc23)cc(C(C)(C)C)cc1NS(C)(=O)=O [17(u), 4-[[4-[[4-[[5-tert-butyl-3-(methanesulfonamido)-2-methoxy-phenyl]carbamoylamino]-1-naphthyl]oxy]-2-pyridyl]amino]-N-(2-morpholinoethyl)benzamide] | – | 86.9 | – | – | – | – | –
10 | COc1cc(Nc2cc(Oc3ccc(NC(=O)Nc4cc(C(C)(C)C)cc(NS(C)(=O)=O)c4OC)c4ccccc34)ccn2)ccc1C(=O)NCC1CCN(C)CC1 [17(ak), 4-[[4-[[4-[[5-tert-butyl-3-(methanesulfonamido)-2-methoxy-phenyl]carbamoylamino]-1-naphthyl]oxy]-2-pyridyl]amino]-2-methoxy-N-[(1-methyl-4-piperidyl)methyl]benzamide] | – | 74.7 | 7.92 | 7.07 | 99.0 | 69.5 | 0.4
11 | COc1cc(Nc2cc(Oc3ccc(NC(=O)Nc4cc(C(C)(C)C)cc(NS(C)(=O)=O)c4OC)c4ccccc34)ccn2)ccc1C(=O)NCCN1CCC(F)(F)CC1 [17(al), 4-[[4-[[4-[[5-tert-butyl-3-(methanesulfonamido)-2-methoxy-phenyl]carbamoylamino]-1-naphthyl]oxy]-2-pyridyl]amino]-N-[2-(4,4-difluoro-1-piperidyl)ethyl]-2-methoxy-benzamide] | – | 21.2 | – | – | – | – | –
12 | COc1cc(Nc2cc(Oc3ccc(NC(=O)Nc4cc(C(C)(C)C)cc(NS(C)(=O)=O)c4OC)c4ccccc34)ccn2)ccc1C(=O)NCCCN1CCCOCC1 [17(aj), 4-[[4-[[4-[[5-tert-butyl-3-(methanesulfonamido)-2-methoxy-phenyl]carbamoylamino]-1-naphthyl]oxy]-2-pyridyl]amino]-2-methoxy-N-[3-(1,4-oxazepan-4-yl)propyl]benzamide] | – | 94.9 | 7.92 | 7.48 | – | – | –
13 | COc1c(NC(=O)Nc2ccc(Oc3ccnc(Nc4ccc(C(=O)O)c(N(C)C)c4)c3)c3ccccc23)cc(C(C)(C)C)cc1NS(C)(=O)=O [17(am), 4-[[4-[[4-[[5-tert-butyl-3-(methanesulfonamido)-2-methoxy-phenyl]carbamoylamino]-1-naphthyl]oxy]-2-pyridyl]amino]-2-(dimethylamino)benzoic acid] | 8.40 | – | 7.17 | 6.91 | 103.4 | 90.5 | 32.5
